Blank lines part the entries; values can stand above or below the compound they belong to. Peptide text beside a SMILES is read from it. * marks the point of attachment. Cbz = O=C(OCc1ccccc1)*; CH2F = FC*
Key:
Panx1 = target: T1, Panx1 (Homo sapiens, UniProt Q96RD7); assay: Panx1-dependent metabolite release from apoptotic Jurkat T cells with Panx1 inhibitors; assay type: cell-based; details: UV-induced apoptosis; spironolactone 50 µM, trovafloxacin 25 µM
T1 construct: host or cells: Jurkat E6.1 T cells (wild type), apoptotic
T1 sequence (Q96RD7 1-379 limits assumed): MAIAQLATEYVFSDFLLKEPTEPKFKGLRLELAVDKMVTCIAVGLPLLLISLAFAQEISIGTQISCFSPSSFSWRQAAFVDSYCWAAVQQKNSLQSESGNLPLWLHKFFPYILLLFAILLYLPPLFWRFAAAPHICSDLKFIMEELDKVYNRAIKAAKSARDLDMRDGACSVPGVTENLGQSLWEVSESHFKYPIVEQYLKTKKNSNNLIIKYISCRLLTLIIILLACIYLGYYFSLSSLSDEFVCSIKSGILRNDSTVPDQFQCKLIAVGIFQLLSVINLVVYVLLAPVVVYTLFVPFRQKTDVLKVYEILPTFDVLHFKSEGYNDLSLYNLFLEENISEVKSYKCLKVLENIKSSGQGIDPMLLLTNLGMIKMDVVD
Experimental: Apoptosis induction. Wild type Jurkat E6.1 (ATCC) or dominant negative Pannexinl-expressing (Panxl-DN)^10 cells were resuspended in RPMI-1640 containing 1% BSA, 1% PSQ, and 10 mM HEPES and treated with 250 ng ml^-1 anti-Fas (clone CH11), 10 µM ABT-737, or exposed to 150 mJ cm^-2 ultraviolet C irradiation for 1-2 min (Stratalinker). Jurkat cells were incubated for 4 hours after apoptosis induction. For apoptosis induction in the presence of Panx1 inhibitors, Jurkat cells were treated with spironolactone (50 µM) or trovafloxacin (25 µM) in RPMI containing 1% BSA and 1% PSQ.
For untargeted metabolomics analysis through Metabolon, recovery standards were added to samples in order to monitor QC of the analysis. Samples were methanol precipitated under shaking for 2 minutes. […] Samples were analyzed under 4 different conditions; two for analysis by two separate reverse phase (RP)/UPLC-MS/MS methods with positive ion mode ESI, one for analysis by RP/UPLC-MS/MS with negative ion mode ESI, and one for analysis by HILIC/UPLC-MS/MS with negative ion mode ESI. […]
During the above analyses of EXAMPLE 1, it was noted that despite the many cellular metabolites detected in the pellet, only a subset is released; further, even within a known metabolic pathway, only some but not others were released. […]

arthritis = details: FBP alone, reference 26; cited from earlier work
[1] = exogenous supplementation, reference 13; cited from earlier work
[2] = test system: Jurkat cells, A549 lung epithelial cells, and HCT116 colonic epithelial cells; assay: Apoptosis-dependent release of conserved metabolites (analytical kits) with or without caspase inhibition; assay type: cell-based, human; details: 50 uM zVAD pre-treatment for 10 min; UV, ABT-737, TRAIL
Experimental: A549 cells were treated with 10 µM ABT-737 or exposed 600mJ cm^-2 and incubated for twenty-four hours. HCT-116 cells were treated with 10 µM ABT-737 or 100 ng ml^-1 TRAIL and incubated for 24 hours. All cells were pre-treated for 10 min with 50 uM zVAD prior to apoptosis induction in indicated experiments. All cells were incubated at 37° C. with 5% CO2 for indicated times.
Metabolite detection. Spermidine detection was measured using a colorimetric kit (Cloud-Clone Corp.) via manufacturers’ protocol. Briefly, supernatants taken from cells under specified conditions were centrifuged at 1000 x g for twenty minutes. All reagents were brought to room temperature prior to use. […] 90 µl of substrate solution was added to each well and incubated for 10 minutes at 37° C. after which 50 µl of stop solution was added, the plate was mixed and immediately measure at 450 nm on a plate reader (Flex station 3). […]
ATP was measure using a luciferase-based kit (Promega) via manufactures’ protocol. […] Luminescence was immediately measure on the Flex Station 3. […]
Glycerol-3-phosphate and creatine were measured based on manufacturers’ protocols (Abcam). […] OD at 450 nm or fluorescence at Ex/Em 535/587 was measured for glycerol-3-phosphate and creatine, respectively.
To test other cell types and additional apoptotic modalities, we analyzed the release of four ‘conserved metabolites’ via analytical kits. […]

Apoptotic metabolites in Jurkat T cell supernatants when Panx1 was inhibited (Panx1): reduced
Compound: CC(=O)S[C@@H]1CC2=CC(=O)CC[C@]2(C)[C@H]2CC[C@@]3(C)[C@@H](CC[C@@]34CCC(=O)O4)[C@H]12 [Spiro, spironolactone]

Apoptotic metabolites in Jurkat T cell supernatants when Panx1 was inhibited (Panx1): reduced
Compound: N[C@@H]1[C@H]2CN(c3nc4c(cc3F)c(=O)c(C(=O)O)cn4-c3ccc(F)cc3F)C[C@@H]12 [Trovan, trovafloxacin]

Compound: O=C(COP(=O)(O)O)[C@@H](O)[C@H](O)[C@H](O)COP(=O)(O)O [fructose 1,6-bisphosphate (FBP), fructose 1,6-bisphosphate]
Role in arthritis (arthritis): can have ameliorative roles in arthritis

Compound: NCCCCNCCCN [spermidine]
Effect on inflammation and longevity [1]: can reduce inflammation and improve longevity

Compound: COC(=O)C[C@H](NC(=O)[C@H](C)NC(=O)[C@@H](NC(=O)OCc1ccccc1)C(C)C)C(=O)CF [zVAD, zVAD-FMK] (Cbz-Val-Ala-Asp(OMe)-CH2F)
Apoptosis-dependent release of the tested metabolites with caspase inhibition [2]: attenuation
